# Positions of bridges follow the written chain, without caps; N, C: chain ends. Non-standard residues stand in square brackets, D forms with d. Residues, ends and D or L forms follow the SMILES beside them. *: point of attachment. Ileψ(thiazoline)Cys = CC[C@H](C)[C@H](N)C1=N[C@H](C(=O)*)CS1; dOrn = NCCC[C@@H](N)C(=O)O
# Species on record: Rattus norvegicus
# Assay: DrugMatrix - Regimen: Daily Repeat
# Format: toxicity, organism-based, Sprague-Dawley
# Parameters: regimen Daily Repeat, gender Male, age 6-8 weeks
# Details: in vivo, sc, route subcutaneous, […]; for ABSOLUTE BASOPHIL / ABSOLUTE EOSINOPHIL / ABSOLUTE LYMPHOCYTE / ABSOLUTE MONOCYTE / ABSOLUTE SEGMENTED NEUTROPHIL / BASOPHIL / EOSINOPHIL / ERYTHROCYTE COUNT / HEMATOCRIT / HEMOGLOBIN / LEUKOCYTE COUNT / LYMPHOCYTE / MEAN CORPUSCULAR HEMOGLOBIN / MEAN CORPUSCULAR HEMOGLOBIN CONCENTRATION / MEAN CORPUSCULAR VOLUME / MONOCYTE / NEUTROPHIL / NUCLEATED RED BLOOD CELLS / PLATELET COUNT: tissue Blood; for ALANINE AMINOTRANSFERASE / ALBUMIN / ALKALINE PHOSPHATASE / ASPARTATE AMINOTRANSFERASE / BLOOD UREA NITROGEN / CARBON DIOXIDE / CHLORIDE / CHOLESTEROL / CREATINE PHOSPHOKINASE / CREATININE / GLUCOSE / LACTATE DEHYDROGENASE / LIPASE / PHOSPHORUS / POTASSIUM / SODIUM / TOTAL BILIRUBIN / TOTAL PROTEIN / URIC ACID: tissue Plasma
# [1] = 380 mg/kg, 72 h, dose level High, time 3 day
# [2] = 380 mg/kg, 120 h, dose level High, time 5 day
# [3] = 72 h, dose 7.6 mg/Kg, dose level Low, time 3 day
# [4] = 120 h, dose 7.6 mg/Kg, dose level Low, time 5 day
compound,measurement,setting,value
CC[C@H](C)[C@H](N)C1=N[C@H](C(=O)N[C@@H](CC(C)C)C(=O)N[C@H](CCC(=O)O)C(=O)N[C@H](C(=O)N[C@H]2CCCCNC(=O)[C@H](CC(N)=O)NC(=O)[C@@H](CC(=O)O)NC(=O)[C@H](Cc3cnc[nH]3)NC(=O)[C@@H](Cc3ccccc3)NC(=O)[C@H]([C@@H](C)CC)NC(=O)[C@@H](CCCN)NC2=O)[C@@H](C)CC)CS1 [BACITRACIN] ({Ileψ(thiazoline)Cys}-L[dE]IK[dOrn]I[dF]H[dD]N; lactam 4-C),ABSOLUTE BASOPHIL,[1],0 CELLS/uL
same,ABSOLUTE EOSINOPHIL,[1],42 CELLS/uL
same,ABSOLUTE LYMPHOCYTE,[1],8742.33 CELLS/uL
same,ABSOLUTE MONOCYTE,[1],132.67 CELLS/uL
same,ABSOLUTE SEGMENTED NEUTROPHIL,[1],3249.67 CELLS/uL
same,BASOPHIL,[1],0%
same,EOSINOPHIL,[1],0.33%
same,ERYTHROCYTE COUNT,[1],4.93 x10E6/uL
same,HEMATOCRIT,[1],31.17%
same,HEMOGLOBIN,[1],12.4 G/DL
same,LEUKOCYTE COUNT,[1],12.17 x10E3/uL
same,LYMPHOCYTE,[1],71.67%
same,MEAN CORPUSCULAR HEMOGLOBIN,[1],25.1 pg
same,MEAN CORPUSCULAR HEMOGLOBIN CONCENTRATION,[1],39.8 G/DL
same,MEAN CORPUSCULAR VOLUME,[1],63.1 fL
same,MONOCYTE,[1],1%
same,NEUTROPHIL,[1],27%
same,NUCLEATED RED BLOOD CELLS,[1],0.67 /100WBC
same,PLATELET COUNT,[1],1256.33 x10E3/uL
same,ALANINE AMINOTRANSFERASE,[1],168 u/L
same,ALBUMIN,[1],3.13 G/DL
same,ALKALINE PHOSPHATASE,[1],252 u/L
same,ASPARTATE AMINOTRANSFERASE,[1],595.67 u/L
same,BLOOD UREA NITROGEN,[1],127.67 mg/dL
same,CARBON DIOXIDE,[1],23.33 mmol/L
same,CHLORIDE,[1],90.67 MEQ/L
same,CHOLESTEROL,[1],114.33 mg/dL
same,CREATINE PHOSPHOKINASE,[1],288.33 u/L
same,CREATININE,[1],4.29 mg/dL
same,GLUCOSE,[1],146.67 mg/dL
same,LACTATE DEHYDROGENASE,[1],577.67 u/L
same,LIPASE,[1],8.67 u/L
same,PHOSPHORUS,[1],15.2 mg/dL
same,POTASSIUM,[1],7.31 MEQ/L
same,SODIUM,[1],136.43 MEQ/L
same,TOTAL BILIRUBIN,[1],0.37 mg/dL
same,TOTAL PROTEIN,[1],5.8 G/DL
same,URIC ACID,[1],1.37 mg/dL
same,ABSOLUTE BASOPHIL,[2],0 CELLS/uL
same,ABSOLUTE EOSINOPHIL,[2],0 CELLS/uL
same,ABSOLUTE LYMPHOCYTE,[2],16005 CELLS/uL
same,ABSOLUTE MONOCYTE,[2],832 CELLS/uL
same,ABSOLUTE SEGMENTED NEUTROPHIL,[2],5863 CELLS/uL
same,BASOPHIL,[2],0%
same,EOSINOPHIL,[2],0%
same,ERYTHROCYTE COUNT,[2],5.69 x10E6/uL
same,HEMATOCRIT,[2],34%
same,HEMOGLOBIN,[2],13.77 G/DL
same,LEUKOCYTE COUNT,[2],22.7 x10E3/uL
same,LYMPHOCYTE,[2],70.67%
same,MEAN CORPUSCULAR HEMOGLOBIN,[2],24.2 pg
same,MEAN CORPUSCULAR HEMOGLOBIN CONCENTRATION,[2],40.47 G/DL
same,MEAN CORPUSCULAR VOLUME,[2],59.77 fL
same,MONOCYTE,[2],3.67%
same,NEUTROPHIL,[2],25.67%
same,NUCLEATED RED BLOOD CELLS,[2],0.33 /100WBC
same,PLATELET COUNT,[2],1853.67 x10E3/uL
same,ALANINE AMINOTRANSFERASE,[2],104 u/L
same,ALBUMIN,[2],3.33 G/DL
same,ALKALINE PHOSPHATASE,[2],228.33 u/L
same,ASPARTATE AMINOTRANSFERASE,[2],305.67 u/L
same,BLOOD UREA NITROGEN,[2],48 mg/dL
same,CARBON DIOXIDE,[2],25.33 mmol/L
same,CHLORIDE,[2],96.33 MEQ/L
same,CHOLESTEROL,[2],99.67 mg/dL
same,CREATINE PHOSPHOKINASE,[2],335 u/L
same,CREATININE,[2],0.95 mg/dL
same,GLUCOSE,[2],137.67 mg/dL
same,LACTATE DEHYDROGENASE,[2],484.67 u/L
same,LIPASE,[2],9 u/L
same,PHOSPHORUS,[2],11.2 mg/dL
same,POTASSIUM,[2],6.3 MEQ/L
same,SODIUM,[2],133.53 MEQ/L
same,TOTAL BILIRUBIN,[2],0.17 mg/dL
same,TOTAL PROTEIN,[2],6.1 G/DL
same,URIC ACID,[2],2.73 mg/dL
same,ABSOLUTE BASOPHIL,[3],0 CELLS/uL
same,ABSOLUTE EOSINOPHIL,[3],0 CELLS/uL
same,ABSOLUTE LYMPHOCYTE,[3],8685.33 CELLS/uL
same,ABSOLUTE MONOCYTE,[3],135 CELLS/uL
same,ABSOLUTE SEGMENTED NEUTROPHIL,[3],1146.33 CELLS/uL
same,BASOPHIL,[3],0%
same,EOSINOPHIL,[3],0%
same,ERYTHROCYTE COUNT,[3],6.24 x10E6/uL
same,HEMATOCRIT,[3],39.37%
same,HEMOGLOBIN,[3],15.53 G/DL
same,LEUKOCYTE COUNT,[3],9.97 x10E3/uL
same,LYMPHOCYTE,[3],87.33%
same,MEAN CORPUSCULAR HEMOGLOBIN,[3],24.9 pg
same,MEAN CORPUSCULAR HEMOGLOBIN CONCENTRATION,[3],39.47 G/DL
same,MEAN CORPUSCULAR VOLUME,[3],63.13 fL
same,MONOCYTE,[3],1.33%
same,NEUTROPHIL,[3],11.33%
same,NUCLEATED RED BLOOD CELLS,[3],0 /100WBC
same,PLATELET COUNT,[3],1341.67 x10E3/uL
same,ALANINE AMINOTRANSFERASE,[3],22.67 u/L
same,ALBUMIN,[3],4.77 G/DL
same,ALKALINE PHOSPHATASE,[3],372.67 u/L
same,ASPARTATE AMINOTRANSFERASE,[3],95 u/L
same,BLOOD UREA NITROGEN,[3],17.33 mg/dL
same,CARBON DIOXIDE,[3],22 mmol/L
same,CHLORIDE,[3],105.67 MEQ/L
same,CHOLESTEROL,[3],79.33 mg/dL
same,CREATINE PHOSPHOKINASE,[3],677 u/L
same,CREATININE,[3],0.21 mg/dL
same,GLUCOSE,[3],182 mg/dL
same,LACTATE DEHYDROGENASE,[3],728.67 u/L
same,LIPASE,[3],9 u/L
same,PHOSPHORUS,[3],14.07 mg/dL
same,POTASSIUM,[3],6.5 MEQ/L
same,SODIUM,[3],151.33 MEQ/L
same,TOTAL BILIRUBIN,[3],0.2 mg/dL
same,TOTAL PROTEIN,[3],6.97 G/DL
same,URIC ACID,[3],2.53 mg/dL
same,ABSOLUTE BASOPHIL,[4],0 CELLS/uL
same,ABSOLUTE EOSINOPHIL,[4],40 CELLS/uL
same,ABSOLUTE LYMPHOCYTE,[4],10682 CELLS/uL
same,ABSOLUTE MONOCYTE,[4],80 CELLS/uL
same,ABSOLUTE SEGMENTED NEUTROPHIL,[4],864.67 CELLS/uL
same,BASOPHIL,[4],0%
same,EOSINOPHIL,[4],0.33%
same,ERYTHROCYTE COUNT,[4],4.88 x10E6/uL
same,HEMATOCRIT,[4],31.97%
same,HEMOGLOBIN,[4],12.4 G/DL
same,LEUKOCYTE COUNT,[4],11.67 x10E3/uL
same,LYMPHOCYTE,[4],90.67%
same,MEAN CORPUSCULAR HEMOGLOBIN,[4],25.37 pg
same,MEAN CORPUSCULAR HEMOGLOBIN CONCENTRATION,[4],38.97 G/DL
same,MEAN CORPUSCULAR VOLUME,[4],65.07 fL
same,MONOCYTE,[4],0.67%
same,NEUTROPHIL,[4],8.33%
same,NUCLEATED RED BLOOD CELLS,[4],0.67 /100WBC
same,PLATELET COUNT,[4],938.67 x10E3/uL
same,ALANINE AMINOTRANSFERASE,[4],50 u/L
same,ALBUMIN,[4],4.2 G/DL
same,ALKALINE PHOSPHATASE,[4],312.33 u/L
same,ASPARTATE AMINOTRANSFERASE,[4],77 u/L
same,BLOOD UREA NITROGEN,[4],17.33 mg/dL
same,CARBON DIOXIDE,[4],27 mmol/L
same,CHLORIDE,[4],103.67 MEQ/L
same,CHOLESTEROL,[4],66 mg/dL
same,CREATINE PHOSPHOKINASE,[4],146.67 u/L
same,CREATININE,[4],0.2 mg/dL
same,GLUCOSE,[4],146.33 mg/dL
same,LACTATE DEHYDROGENASE,[4],121 u/L
same,LIPASE,[4],8.67 u/L
same,PHOSPHORUS,[4],12.63 mg/dL
same,POTASSIUM,[4],6.86 MEQ/L
same,SODIUM,[4],148.7 MEQ/L
same,TOTAL BILIRUBIN,[4],0.2 mg/dL
same,TOTAL PROTEIN,[4],6 G/DL
same,URIC ACID,[4],1.4 mg/dL

# — ChEMBL document CHEMBL3885881, “DrugMatrix”
